The source made the active and inactive calls.
How the values were obtained:
Format in all cases: functional
[1] = biological target: T1, Insulin-degrading enzyme (Homo sapiens, UniProt P14735); assay: Dose Response: Fluorescence polarization-based cell-based high throughput dose response assay for inhibitors of insulin-degrading enzyme (IDE). [Related pubchem assays: 434962 (Primary screen (IDE inhibitors in singlicate)), 449730 (Counterscreen (Cytotoxicity in triplicate)), 435028 (Confirmation (IDE inhibitors in triplicate)), 434984 (Summary …
T1 sequence (P14735 whole entry): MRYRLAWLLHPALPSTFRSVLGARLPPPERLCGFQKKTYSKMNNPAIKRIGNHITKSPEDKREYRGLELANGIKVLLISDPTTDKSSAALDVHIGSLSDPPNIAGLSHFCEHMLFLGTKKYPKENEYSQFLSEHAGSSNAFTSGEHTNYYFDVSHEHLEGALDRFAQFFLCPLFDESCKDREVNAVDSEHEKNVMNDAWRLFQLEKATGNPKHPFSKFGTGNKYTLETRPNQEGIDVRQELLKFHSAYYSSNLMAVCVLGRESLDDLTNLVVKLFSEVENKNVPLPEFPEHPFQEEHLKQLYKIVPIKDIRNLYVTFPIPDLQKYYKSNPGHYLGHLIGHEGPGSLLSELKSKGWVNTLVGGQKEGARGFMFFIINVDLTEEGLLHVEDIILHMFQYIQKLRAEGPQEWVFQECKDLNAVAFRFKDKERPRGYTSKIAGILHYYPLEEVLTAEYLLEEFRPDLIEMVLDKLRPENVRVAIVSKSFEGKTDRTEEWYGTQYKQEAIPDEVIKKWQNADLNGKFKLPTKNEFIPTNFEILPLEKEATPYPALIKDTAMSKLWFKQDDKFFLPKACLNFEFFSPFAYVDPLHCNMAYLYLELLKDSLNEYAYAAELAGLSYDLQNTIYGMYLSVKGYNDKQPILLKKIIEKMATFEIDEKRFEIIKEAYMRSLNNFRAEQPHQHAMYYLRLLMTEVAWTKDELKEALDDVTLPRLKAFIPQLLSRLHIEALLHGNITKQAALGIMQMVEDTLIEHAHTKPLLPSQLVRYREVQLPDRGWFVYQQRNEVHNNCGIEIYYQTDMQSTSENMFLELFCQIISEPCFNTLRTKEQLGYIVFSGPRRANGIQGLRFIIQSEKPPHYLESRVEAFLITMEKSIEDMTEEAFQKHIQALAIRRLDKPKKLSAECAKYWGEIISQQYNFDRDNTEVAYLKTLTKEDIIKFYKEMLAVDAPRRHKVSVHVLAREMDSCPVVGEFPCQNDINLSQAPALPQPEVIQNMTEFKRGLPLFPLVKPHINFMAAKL

[2] = Counterscreen for IDE inhibitors: Luminescence-based cell-based high throughput dose response assay to identify compounds that are cytotoxic to HEK cells. [Related pubchem assays: 434962 (Primary screen (IDE inhibitors in singlicate)), 449730 (Counterscreen (Cytotoxicity in triplicate)), 435028 (Confirmation (IDE inhibitors in triplicate)) …; conditions: HEK293
[3] = biological target: SUMO-activating enzyme (Homo sapiens, UniProt Q9UBT2); assay: blockers of UBC9-mediated SUMO conjugation – biochemical, AlphaScreen, SUMOylation inhibitor project, confirmation (AID 2018)
Chain of SUMO-activating enzyme (Q9UBE0 whole entry): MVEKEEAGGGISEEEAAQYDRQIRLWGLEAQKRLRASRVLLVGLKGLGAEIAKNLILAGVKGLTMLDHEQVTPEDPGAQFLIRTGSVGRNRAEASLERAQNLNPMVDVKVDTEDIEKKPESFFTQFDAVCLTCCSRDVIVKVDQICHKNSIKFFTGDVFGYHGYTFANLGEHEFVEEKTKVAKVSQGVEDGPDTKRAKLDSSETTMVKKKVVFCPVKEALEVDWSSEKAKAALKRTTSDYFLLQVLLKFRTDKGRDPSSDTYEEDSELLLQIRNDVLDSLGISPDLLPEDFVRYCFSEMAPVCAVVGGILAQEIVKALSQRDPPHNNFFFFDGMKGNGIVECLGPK
Chain of SUMO-activating enzyme (Q9UBT2 whole entry): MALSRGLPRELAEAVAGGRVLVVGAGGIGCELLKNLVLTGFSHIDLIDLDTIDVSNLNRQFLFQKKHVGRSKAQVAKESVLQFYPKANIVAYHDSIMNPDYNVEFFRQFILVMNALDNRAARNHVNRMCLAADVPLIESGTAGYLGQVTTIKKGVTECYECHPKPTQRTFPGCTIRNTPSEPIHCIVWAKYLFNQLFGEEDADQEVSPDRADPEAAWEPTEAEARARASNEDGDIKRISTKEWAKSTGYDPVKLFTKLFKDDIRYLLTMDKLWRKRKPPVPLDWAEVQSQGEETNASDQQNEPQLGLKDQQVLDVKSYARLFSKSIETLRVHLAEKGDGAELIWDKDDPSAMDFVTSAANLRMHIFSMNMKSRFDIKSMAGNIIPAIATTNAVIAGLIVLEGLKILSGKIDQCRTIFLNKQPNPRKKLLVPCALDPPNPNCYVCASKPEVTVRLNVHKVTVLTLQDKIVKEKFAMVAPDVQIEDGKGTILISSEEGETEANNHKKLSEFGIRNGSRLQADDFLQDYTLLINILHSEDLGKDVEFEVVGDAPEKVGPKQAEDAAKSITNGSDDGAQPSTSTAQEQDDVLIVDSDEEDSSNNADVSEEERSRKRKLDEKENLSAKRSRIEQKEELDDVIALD

[4] = biological target: T2, Short transient receptor potential channel 4 (Mus musculus, UniProt Q9QUQ5); assay: calcium entry via TRPC4 opening agents – cell-based, HEK293 TRPC4/mu-opioid, Fluo-4 calcium, dose response (AID 434937)
T2 sequence (Q9QUQ5 whole entry): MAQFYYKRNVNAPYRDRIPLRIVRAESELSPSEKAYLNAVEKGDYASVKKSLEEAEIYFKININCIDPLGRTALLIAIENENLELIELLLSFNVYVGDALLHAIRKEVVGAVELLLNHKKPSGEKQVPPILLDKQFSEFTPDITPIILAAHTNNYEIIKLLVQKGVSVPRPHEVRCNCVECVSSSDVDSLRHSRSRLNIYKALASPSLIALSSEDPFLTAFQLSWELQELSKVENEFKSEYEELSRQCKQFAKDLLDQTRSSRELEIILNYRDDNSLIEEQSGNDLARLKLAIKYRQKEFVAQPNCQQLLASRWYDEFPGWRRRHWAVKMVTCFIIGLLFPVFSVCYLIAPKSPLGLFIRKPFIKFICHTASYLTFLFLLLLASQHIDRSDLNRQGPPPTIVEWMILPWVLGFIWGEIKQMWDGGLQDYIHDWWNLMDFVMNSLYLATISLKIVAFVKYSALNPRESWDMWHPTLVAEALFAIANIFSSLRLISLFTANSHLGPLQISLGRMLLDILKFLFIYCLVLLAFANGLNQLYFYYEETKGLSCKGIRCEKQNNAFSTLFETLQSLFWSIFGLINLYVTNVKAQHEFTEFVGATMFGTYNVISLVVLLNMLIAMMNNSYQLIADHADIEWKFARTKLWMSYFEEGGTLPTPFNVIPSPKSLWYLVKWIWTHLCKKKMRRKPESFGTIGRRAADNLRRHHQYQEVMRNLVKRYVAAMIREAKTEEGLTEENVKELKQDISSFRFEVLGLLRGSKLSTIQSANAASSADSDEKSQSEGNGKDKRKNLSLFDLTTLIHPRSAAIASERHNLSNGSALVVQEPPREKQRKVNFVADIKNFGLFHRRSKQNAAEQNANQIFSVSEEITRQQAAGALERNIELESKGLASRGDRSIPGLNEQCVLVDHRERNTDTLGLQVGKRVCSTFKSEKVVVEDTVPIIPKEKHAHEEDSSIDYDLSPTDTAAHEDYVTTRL

[5] = MIN6 cell viability loss – mouse insulinoma, cytotoxicity control, dose response (AID 2122);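 note: confirmatory high-throughput counterscreen run to flag cytotoxic compounds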
[6] = decrease of insulin promoter-GFP reporter – imaging, high-content screening, mouse beta cells (AID 1628); conditions: MIN6

Structure (SMILES) | IC50 [1] | IC50 [2] | IC50 [3] | other results
COc1cc(/C=C2\SC(=S)N(NC(C)=O)C2=O)ccc1OC(=O)c1ccco1 | 5.78 µM (active) | > 55.7 µM (not active) |  | 
N#C/C(=C(/O)c1ccc(S(=O)(=O)N(CCCl)CCCl)cc1)c1nc2ccccc2[nH]1 |  |  | 73.8 µM (active) | 
CNCC(=O)N1CCN(c2ncc(C(F)(F)F)cc2Cl)CC1 |  |  |  | EC50 [4]: 0.105 µM (active)
CCCC(=O)Nc1ccc2oc(-c3cncc(Br)c3)nc2c1 |  |  | 90.5 µM (active) | 
O=C(O)CC12CC3CC(C1)CC(n1ncc(NCc4ccccc4Cl)c(Cl)c1=O)(C3)C2 | 9.59 µM (active) | > 55.7 µM (not active) |  | 
CC(C)C(=O)Nc1cccc(C(=O)N2CCCCC2C)c1 (centres undefined) |  |  |  | IC50 [5]: 1.99 µM (active); IC50 [6]: 2.43 µM (active)

Reference: ChEMBL document CHEMBL1201862, “PubChem BioAssay data set” (2004)
